{"source": "patent US20190046446A1", "about": "“APO-E MODIFIED LIPID NANOPARTICLES FOR DRUG DELIVERY TO TARGETED TISSUES AND THERAPEUTIC METHODS” (Eriochem USA, LLC, priority 2016, published 2019)", "key": {"New Zealand rabbits [1]": {"test_system": "New Zealand rabbits", "assay": "Blood counts (hemogram) in rabbits;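 further: compound given into the marginal ear vein under ketamine-xylazine-acepromazine anesthesia, blood drawn from the ear central artery after sedation, seven samplings from one day before to day 20 after first dose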", "details": "iv, 3 cycles every 7 days", "experimental": "The intravenous administration was performed in the marginal ear vein and previously rabbits underwent anesthesia intramuscular injection by a combination of Ketamine-Xylazine-Acepromazine (2.4 mg/kg acepromazine, 48 mg/kg Ketamine and 5 mg/kg xylazine)\nBlood samples were taken from the central artery of the ear, after sedation. A total of 7 samples were taken for each rabbit, and samples were taken a day before the first doses (−1), and on days 1, 6, 8, 13, 15 and 20 after the first dose."}, "[2]": {"assay": "Liver accumulation of Docetaxel in rabbits", "format": "in vivo", "details": "iv, 2.5 mg/kg DCX", "method": "In measuring the liver accumulation, the animals were randomly divided into four groups following the above plasma assay. The groups were as follows:\nThe livers of the rabbits were totally removed at 24 hours and 36 hours, then weighed, frozen and stored at […]. The rabbit liver samples were precipitated with acetonitrile, followed by solid phase extraction (SPE), evaporation and resuspension of the resulting extract in a solvent and then analyzed by injection into LC ESI MS/MS. The determinations were performed by liquid chromatography and mass spectrometry (using a Shimadzu UFLC XR liquid chromatograph coupled to a AB Sciex 3200 QTrap mass spectrometer).\nValues are Media±SEM. (N=5)."}, "New Zealand rabbits [3]": {"test_system": "New Zealand rabbits", "assay": "Hepatic toxicity (GGT and GOT determination)", "format": "in vivo", "details": "iv, DCX 2.5 mg/kg or equivalent, 24 hours after inoculation", "method": "The experiment was carried out using New Zealand rabbits kept in facilities under controlled environmental conditions (temperature of 22° C.+3° C.; 12-hour light/dark cycle) and with free access to food and water. Acclimatization was performed for a minimum of 10 days prior to the start of the experiment. Each animal weighted approximately 2.8 kg and was distributed into a group of 5 animals each.\nFormulations were administered intravenously (in marginal ear vein) into rabbits that had previously been intravenously injected with a combination of Ketamine-Xylazine-Acepromazine. Amounts of Gamma glutamil transaminase (GGT) and glutamic-oxaloacetic transaminase (GOT) were determined in plasma of the rabbits 24 hours after inoculation with the formulation. The results of each sample were statistically analyzed with ANOVA and Duncan Test using SPSS 11.0."}}, "data": [{"compound": "CC(=O)O[C@@]12CO[C@@H]1C[C@H](O)[C@@]1(C)C(=O)[C@H](O)C3=C(C)[C@@H](OC(=O)[C@H](O)[C@@H](NC(=O)OC(C)(C)C)c4ccccc4)C[C@@](O)([C@@H](OC(=O)c4ccccc4)[C@H]21)C3(C)C", "note": "[TAXOTERE, Docetaxel]", "values": [{"measurement": "Hematocrit", "setting": "New Zealand rabbits [1]; Sample 1 (day -1)", "result": 40, "unit": "%"}, {"measurement": "MCH", "setting": "New Zealand rabbits [1]; Sample 1 (day -1)", "result": 20, "unit": "pg"}, {"measurement": "MCHC", "setting": "New Zealand rabbits [1]; Sample 1 (day -1)", "result": 28, "unit": "g/dL"}, {"measurement": "MCV", "setting": "New Zealand rabbits [1]; Sample 1 (day -1)", "result": 71, "unit": "fL"}, {"measurement": "Red Cells", "setting": "New Zealand rabbits [1]; Sample 1 (day -1)", "result": "5.7 × 10^6/mm^3"}, {"measurement": "White Blood Cells", "setting": "New Zealand rabbits [1]; Sample 1 (day -1)", "result": "6720 /mm"}, {"measurement": "Hematocrit", "setting": "New Zealand rabbits [1]; Sample 2 (day 1)", "result": 37, "unit": "%"}, {"measurement": "MCH", "setting": "New Zealand rabbits [1]; Sample 2 (day 1)", "result": 20, "unit": "pg"}, {"measurement": "MCHC", "setting": "New Zealand rabbits [1]; Sample 2 (day 1)", "result": 28, "unit": "g/dL"}, {"measurement": "MCV", "setting": "New Zealand rabbits [1]; Sample 2 (day 1)", "result": 71, "unit": "fL"}, {"measurement": "Red Cells", "setting": "New Zealand rabbits [1]; Sample 2 (day 1)", "result": "5.2 × 10^6/mm^3"}, {"measurement": "White Blood Cells", "setting": "New Zealand rabbits [1]; Sample 2 (day 1)", "result": "6175 /mm"}, {"measurement": "Hematocrit", "setting": "New Zealand rabbits [1]; Sample 3 (day 6)", "result": 37, "unit": "%"}, {"measurement": "MCH", "setting": "New Zealand rabbits [1]; Sample 3 (day 6)", "result": 20, "unit": "pg"}, {"measurement": "MCHC", "setting": "New Zealand rabbits [1]; Sample 3 (day 6)", "result": 28, "unit": "g/dL"}, {"measurement": "MCV", "setting": "New Zealand rabbits [1]; Sample 3 (day 6)", "result": 70, "unit": "fL"}, {"measurement": "Red Cells", "setting": "New Zealand rabbits [1]; Sample 3 (day 6)", "result": "5.2 × 10^6/mm^3"}, {"measurement": "White Blood Cells", "setting": "New Zealand rabbits [1]; Sample 3 (day 6)", "result": "3800 /mm"}, {"measurement": "Hematocrit", "setting": "New Zealand rabbits [1]; Sample 4 (day 8)", "result": 39, "unit": "%"}, {"measurement": "MCH", "setting": "New Zealand rabbits [1]; Sample 4 (day 8)", "result": 19, "unit": "pg"}, {"measurement": "MCHC", "setting": "New Zealand rabbits [1]; Sample 4 (day 8)", "result": 25, "unit": "g/dL"}, {"measurement": "MCV", "setting": "New Zealand rabbits [1]; Sample 4 (day 8)", "result": 69, "unit": "fL"}, {"measurement": "Red Cells", "setting": "New Zealand rabbits [1]; Sample 4 (day 8)", "result": "5.6 × 10^6/mm^3"}, {"measurement": "White Blood Cells", "setting": "New Zealand rabbits [1]; Sample 4 (day 8)", "result": "3500 /mm"}, {"measurement": "Hematocrit", "setting": "New Zealand rabbits [1]; Sample 5 (day 13)", "result": 24, "unit": "%"}, {"measurement": "MCH", "setting": "New Zealand rabbits [1]; Sample 5 (day 13)", "result": 19, "unit": "pg"}, {"measurement": "MCHC", "setting": "New Zealand rabbits [1]; Sample 5 (day 13)", "result": 28, "unit": "g/dL"}, {"measurement": "MCV", "setting": "New Zealand rabbits [1]; Sample 5 (day 13)", "result": 69, "unit": "fL"}, {"measurement": "Red Cells", "setting": "New Zealand rabbits [1]; Sample 5 (day 13)", "result": "3.9 × 10^6/mm^3"}, {"measurement": "White Blood Cells", "setting": "New Zealand rabbits [1]; Sample 5 (day 13)", "result": "4000 /mm"}, {"measurement": "Hematocrit", "setting": "New Zealand rabbits [1]; Sample 6 (day 15)", "result": 31, "unit": "%"}, {"measurement": "MCH", "setting": "New Zealand rabbits [1]; Sample 6 (day 15)", "result": 20, "unit": "pg"}, {"measurement": "MCHC", "setting": "New Zealand rabbits [1]; Sample 6 (day 15)", "result": 29, "unit": "g/dL"}, {"measurement": "MCV", "setting": "New Zealand rabbits [1]; Sample 6 (day 15)", "result": 70, "unit": "fL"}, {"measurement": "Red Cells", "setting": "New Zealand rabbits [1]; Sample 6 (day 15)", "result": "4.4 × 10^6/mm^3"}, {"measurement": "White Blood Cells", "setting": "New Zealand rabbits [1]; Sample 6 (day 15)", "result": "5500 /mm"}, {"measurement": "Hematocrit", "setting": "New Zealand rabbits [1]; Sample 7 (day 20)", "result": 19, "unit": "%"}, {"measurement": "MCH", "setting": "New Zealand rabbits [1]; Sample 7 (day 20)", "result": 20, "unit": "pg"}, {"measurement": "MCHC", "setting": "New Zealand rabbits [1]; Sample 7 (day 20)", "result": 44, "unit": "g/dL"}, {"measurement": "MCV", "setting": "New Zealand rabbits [1]; Sample 7 (day 20)", "result": 45, "unit": "fL"}, {"measurement": "Red Cells", "setting": "New Zealand rabbits [1]; Sample 7 (day 20)", "result": "4.2 × 10^6/mm^3"}, {"measurement": "White Blood Cells", "setting": "New Zealand rabbits [1]; Sample 7 (day 20)", "result": "2900 /mm"}, {"measurement": "DCX Concentration in Liver", "setting": "[2]; 24 hours", "result": "446 ± 66"}, {"measurement": "DCX Concentration in Liver", "setting": "[2]; 36 hours", "result": "495 ± 126"}, {"measurement": "signs after day 12", "setting": "rabbits; rabbit, in vivo, 3.2 mg/kg", "result": "anorexia and adipsia"}, {"measurement": "dead animals after the first cycle of inoculation", "setting": "rabbits; rabbits, 3.2 mg/kg Docetaxel", "result": "dead animals were found"}, {"measurement": "dead animals after the second cycle of inoculation", "setting": "rabbits; rabbits, 3.2 mg/kg Docetaxel", "result": "dead animals were found"}, {"measurement": "mortality / lethality", "setting": "rabbits; rabbits, 3.2 mg/kg Docetaxel (4 ml/kg), three cycles", "result": 80, "unit": "%"}, {"measurement": "GGT concentration in plasma", "setting": "New Zealand rabbits [3]", "result": "No significant differences"}, {"measurement": "GOT concentration in plasma", "setting": "New Zealand rabbits [3]", "result": "O significant differences"}]}]}
